Experiments:
[1] = system: mouse embryo fibroblasts (MEFs); test: Mitochondrial transmembrane potential (Rhodamine123 flow cytometry) in MEFs; format: cell-based; conditions: 10 μM 24 hours
Procedure: The cells were stained with 50 ng/ml Rhodamine123 for 15 minutes and analyzed by flow cytometry (left panels).
The cells were stained with 50 ng/ml Rhodamine123 (Molecular Probes) for 15 minutes at 37° C. Samples were analyzed by flow cytometry using 488 nm excitation and measurement of emission through a 576/26 (ethidium) bandpass filter (FIGS. 2A and 2B, left panels).

U-937 cells = test: H2O2-induced apoptosis (sub-G1 DNA, propidium iodide) in U-937 cells; format: cell-based, human; conditions: 10 μM 24 hours, then 1 mM H2O2 18 hours
Procedure: (§1) Ethanol-fixed cells were stained with propidium iodide and monitored for sub-G1 DNA (upper panels). The percentage (mean±S.E.) of cells with sub-G1 DNA was determined from three separate experiments (lower panels).
(§2) Ethanol-fixed cells were stained with propidium iodide and monitored for sub-G1 DNA by FACScan (Becton-Dickinson) (FIGS. 3A and 3C). The percentage (mean±S.E.) of cells with sub-G1 DNA was determined from three separate experiments (FIGS. 3B and 3D).

[2] = system: mouse embryo fibroblasts (MEFs); test: H2O2-induced apoptosis (sub-G1 DNA, propidium iodide) in MEFs; format: cell-based; conditions: 10 μM 24 hours, then 1 mM H2O2 18 hours
Procedure: as §1, §2

Cc1ccc(NC(=O)c2ccc(CN3CCN(C)CC3)cc2)cc1Nc1nccc(-c2cccnc2)n1 [STI571, 4-[(4-Methyl-1-piperazinyl)methyl]-N-[4-methyl-3-[[4-(3-pyridinyl)-2-pyrimidinyl]amino-]-phenyl]benzanide methanesulfonate]
effect of STI571 alone on mitochondrial transmembrane potential ([1]; no H2O2): no apparent effect
H2O2-induced decrease in mitochondrial transmembrane potential ([1]; then 1 mM H2O2 6 hours): substantially inhibited
inhibitory effects on loss of mitochondrial transmembrane potential at longer periods of H2O2 exposure ([1]; then H2O2 18 hours): detectable
inhibition of H2O2-induced apoptosis (cells with sub-G1 DNA) (U-937 cells): over 80%
decrease of H2O2-induced apoptosis (cells with sub-G1 DNA) [2]: 50%

Reference: patent publication US20060128720A1, “Inhibition of cell death responses induced by oxidative stress” (priority 2002, published 2006)
